Experimental data published in publication PMC4865845, “A human genome-wide loss-of-function screen identifies effective chikungunya antiviral drugs” (Nature Communications, 2016).
Read-outs that look alike come from different tables or passages of the source.

Experiments:
HEK-293 cells = assay: Cell viability, Cell Proliferation Reagent WST-1; format: cell-based, human; conditions: read-out: WST-1 IC50
Description: To exclude the possible cytotoxic effects, all compounds were additionally tested using the ‘Cell Proliferation Reagent WST-1' (Roche Diagnostics). HEK-293 cells were treated with the same concentrations of the various substances and 18 h later WST-1 was added. Readout was conducted using the EnVision Multilabel Reader (PerkinElmer).

CHIKV [1] = assay: microbe, parasite or virus in culture; format: cell-based, chikungunya virus; conditions: HEK-293 cells pretreated with dilutions of each drug, CHIKV-GFP, 18 h p.i.
CLK1 = CLK1 (Homo sapiens, UniProt P49759); assay: CLK1 inhibition by capillary electrophoresis in a microfluidic chip system (LabChip3000); format: biochemical
Chain of CLK1 (P49759 whole entry): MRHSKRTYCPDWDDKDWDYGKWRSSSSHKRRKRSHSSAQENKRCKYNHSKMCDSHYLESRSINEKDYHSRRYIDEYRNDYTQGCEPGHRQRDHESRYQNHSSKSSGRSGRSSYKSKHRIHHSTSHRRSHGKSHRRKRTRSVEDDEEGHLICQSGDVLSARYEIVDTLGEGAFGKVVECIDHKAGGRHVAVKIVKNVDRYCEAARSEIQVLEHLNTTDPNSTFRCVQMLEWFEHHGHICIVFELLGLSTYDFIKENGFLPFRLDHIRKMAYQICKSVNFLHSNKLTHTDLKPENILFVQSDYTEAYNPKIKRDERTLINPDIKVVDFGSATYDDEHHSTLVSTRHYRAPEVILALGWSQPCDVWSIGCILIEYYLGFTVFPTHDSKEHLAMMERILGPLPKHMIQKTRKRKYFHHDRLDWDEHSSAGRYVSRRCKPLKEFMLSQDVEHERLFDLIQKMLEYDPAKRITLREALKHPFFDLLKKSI

HeLa cells [2] = assay: Cell viability, CellTiter-Glo kit; conditions: end of the 1 h infection + 7 h treatment experiment
CHIKV C21 [3] = assay: Quantitative RT-PCR of cell- and supernatant-associated vRNA; format: cell-based, chikungunya virus; conditions: HeLa; for vRNA synthesis (cell-associated vRNA) / viral release in the supernatants (supernatant-associated vRNA): CHIKV C21 MOI 50 for 1 h, then drug 7 h: cerulenin 50 μM, TOFA 25 μM, pimozide 10 μM, W7 20 μM, tivozanib 5 μM; for vRNA replication, delayed treatment / viral release, delayed treatment: CHIKV-infected, drugs from 6 to 8 h p.i.
CHIKV C21 [4] = assay: Intradermal CHIKV infection model of neonatal mice
CHIKV C21 [5] = assay: Single-cycle CHIKV C21 infection, drug 2 h before or 2 h after infection (flow cytometry of capsid; supernatant infectivity on Vero cells); format: cell-based, chikungunya virus
HeLa cells [6] = assay: Real-time cell toxicity assay (xCELLigence)
CHIKV replicon = CHIKV replicon dual-luciferase assay (genomic and subgenomic vRNA expression); format: cell-based, chikungunya virus; conditions: HeLa cells, inhibitor from 1 h p.i., read 8 h p.i.
CHIKV [7] = format: cell-based, chikungunya virus
[8] = 0.5 mg kg−1 per os daily from day 7, infected at day 9, continued 21 days
[9] = HEK-293 cell viability, 18 h, * = treatment induced <50% cell death

Cc1ccc(Nc2nccc(N(C)c3ccc4c(C)n(C)nc4c3)n2)cc1S(N)(=O)=O [Pazopanib]
IC50 (HEK-293 cells; Homo sapiens, HEK293, 18 h): 1.32 µM | IC50 (CHIKV [1]; Chikungunya virus, HEK293): 0.13 µM

COc1ccc2c(c1)[nH]c1c(/C=C/c3ccccc3)nccc12 [AnnH18, (E)-7-methoxy-1-(2-phenylethen-1-yl)-9H-pyrido[3,4-b]indole]
IC50 (HEK-293 cells; Homo sapiens, HEK293, 18 h): 9.19 µM | IC50 (CLK1): 0.575 µM | IC50 (CHIKV [1]; Chikungunya virus, HEK293): 1.02 µM

COc1cc2nccc(Oc3ccc(NC(=O)Nc4cc(C)on4)c(Cl)c3)c2cc1OC [Tivozanib]
cell toxicity (HeLa cells [2]): no detectable cell toxicity | IC50 (HEK-293 cells; Homo sapiens, HEK293, 18 h): 8.34 µM | vRNA synthesis (cell-associated vRNA) (CHIKV C21 [3]): significantly reduced vRNA synthesis | viral release in the supernatants (supernatant-associated vRNA) (CHIKV C21 [3]): strongly inhibited viral release | vRNA replication, delayed treatment (CHIKV C21 [3]): only a minor impact on vRNA replication | viral release, delayed treatment (CHIKV C21 [3]): major defect in viral release | IC50 (CHIKV [1]; Chikungunya virus, HEK293): 0.8 µM | body weight gain (CHIKV C21 [4]; [8]): positive impact on body weight gain | mortality of CHIKV-infected mice (CHIKV C21 [4]; [8]): significant reduction in mortality | onset of paralysis (CHIKV C21 [4]; [8]): protected from the onset of paralysis | CHIKV viral load in organs (CHIKV C21 [4]; 3 days post infection, 0.5 mg kg−1 per os): significantly reduced CHIKV viral load

CNC(=O)c1cc(Oc2ccc(NC(=O)Nc3ccc(Cl)c(C(F)(F)F)c3)cc2)ccn1 [Sorafenib]
IC50 (HEK-293 cells; Homo sapiens, HEK293, 18 h): 18.2 µM | IC50 (CHIKV [1]; Chikungunya virus, HEK293): 1.11 µM

CCCCn1c2cc(OC)c(Cl)cc2c2ccnc(C)c21 [AnnH14, 9-butyl-6-chloro-7-methoxy-1-methyl-9H-pyrido[3,4-b]indole]
IC50 (HEK-293 cells; Homo sapiens, HEK293, 18 h): 10.6 µM | IC50 (CLK1): 5.02 µM | IC50 (CHIKV [1]; Chikungunya virus, HEK293): 1.55 µM

COc1cc(N2CCC(N3CCN(C)CC3)CC2)ccc1Nc1ncc(Cl)c(Nc2ccccc2S(=O)(=O)C(C)C)n1 [TAE684]
IC50 (HEK-293 cells; Homo sapiens, HEK293, 18 h): 2.07 µM | IC50 (CHIKV [1]; Chikungunya virus, HEK293): 0.15 µM

CO/C1=C\C(C)=C\[C@@H](C)[C@@H](O)[C@@H](C)C/C(C)=C/C=C/[C@H](OC)[C@@H]([C@@H](C)[C@@H](O)[C@H](C)[C@@]2(O)C[C@@H](O)[C@H](C)[C@@H](C(C)C)O2)OC1=O [Bafilomycin]
stage of the viral life cycle affected (CHIKV C21 [5]; single-cycle CHIKV infection, treatment before or after viral entry): specifically blocked CHIKV entry | IC50 (HEK-293 cells; [9]): 0.003 µM | IC50 (CHIKV [1]): 0.000334 µM

COc1ccc(-c2ccccc2)cc1NS(=O)(=O)c1cc(Cl)cc(Cl)c1O [BMS-303141]
effect on cell viability (HeLa cells [6]): no deleterious effect on cell viability | genomic and subgenomic vRNA synthesis (CHIKV replicon): significant and dose-dependent reduction

KH-CB19
inhibition of CHIKV infection at early times p.i. (CHIKV C21 [5]; Supplementary Fig. 5a): incomplete inhibition | IC50 (HEK-293 cells; [9]): 10.9 µM | IC50 (CHIKV [1]): 3.36 µM

CC(Cc1ccccc1)NCCC(c1ccccc1)c1ccccc1 (stereo not drawn) [Prenylamine]
IC50 (HEK-293 cells; Homo sapiens, HEK293, 18 h): 16.5 µM | IC50 (CHIKV [1]; Chikungunya virus, HEK293): 2.39 µM

OCCN1CCN(CCCN2c3ccccc3Sc3ccc(Cl)cc32)CC1 [Perphenazine]
IC50 (HEK-293 cells; Homo sapiens, HEK293, 18 h): 24.2 µM | IC50 (CHIKV [1]; Chikungunya virus, HEK293): 0.63 µM

O=C1Cc2c([nH]c3ccc([N+](=O)[O-])cc23)-c2ccccc2N1 [Alsterpaullone]
IC50 (HEK-293 cells; Homo sapiens, HEK293, 18 h): 44.4 µM | IC50 (CHIKV [1]; Chikungunya virus, HEK293): 0.002 µM

Cc1ccc(F)c(NC(=O)Nc2ccc(-c3cccc4[nH]nc(N)c34)cc2)c1 [Linifanib]
IC50 (HEK-293 cells; Homo sapiens, HEK293, 18 h): > 60 µM | IC50 (CHIKV [1]; Chikungunya virus, HEK293): 2.15 µM

O=c1cc(-c2ccccc2)oc2ccc(O)cc12 [6-Hydroxyflavone]
IC50 (HEK-293 cells; Homo sapiens, HEK293, 18 h): > 60 µM | IC50 (CHIKV [1]; Chikungunya virus, HEK293): 2.6 µM

C=CC/C=C\C/C=C\CCCCCCCc1cccc(O)c1C(=O)O [(15:3)-Anacardic acid]
IC50 (HEK-293 cells; [9]): 2.68 µM | IC50 (CHIKV [1]): 0.58 µM

C/C=C/C/C=C/CCC(=O)[C@H]1O[C@H]1C(N)=O [Cerulenin]
cell toxicity (HeLa cells [2]): no detectable cell toxicity | IC50 (HEK-293 cells; Homo sapiens, HEK293, 18 h): 7.57 µM | effect on cell viability (HeLa cells [6]): no deleterious effect on cell viability | vRNA synthesis (cell-associated vRNA) (CHIKV C21 [3]): significantly reduced vRNA synthesis | viral release in the supernatants (supernatant-associated vRNA) (CHIKV C21 [3]): strongly inhibited viral release | vRNA replication, delayed treatment (CHIKV C21 [3]): only a minor impact on vRNA replication | viral release, delayed treatment (CHIKV C21 [3]): major defect in viral release | genomic and subgenomic vRNA synthesis (CHIKV replicon): significant and dose-dependent reduction | IC50 (CHIKV [1]; Chikungunya virus, HEK293): 3 µM

CCCCCCCCCCC[C@@H](C[C@@H]1OC(=O)[C@H]1CCCCCC)OC(=O)[C@H](CC(C)C)NC=O [Orlistat]
IC50 (HEK-293 cells; Homo sapiens, HEK293, 18 h): 8.67 µM | IC50 (CHIKV [1]; Chikungunya virus, HEK293): 0.82 µM

s195093 (sense AGCTGTCCCTCTTTGCTGT; chemistry not given here) [reference compound]
Score_si3 (CHIKV [7]): -0.16

s32491 (GCCTGTATATGAGAGCCTT; chemistry not given here)
Score_si4 (CHIKV [7]): 0.05

s20629 (sense GGAGAAAGAATCAACGGAA; chemistry not given here)
Score_si2 (CHIKV [7]): 2

s12353 (sense GGCATGTCGGTTACAAGAA; chemistry not given here)
Score_si1 (CHIKV [7]): 1.86

Hs_DKFZP564C186_1 (AAGGATGAGGACAGGAAGCAA; chemistry not given here)
Score_si1 (CHIKV [7]): 2.71

s19040 (sense GTACATAACATCAATTTCA; chemistry not given here)
Score_si4 (CHIKV [7]): 0.32

s35332 (CAGGTATTCAGGTCCATGA; chemistry not given here)
Score_si3 (CHIKV [7]): 0.27

s36692 (GGCTATTGATTGTCCACAT; chemistry not given here) [reference compound]
Score_si4 (CHIKV [7]): -0.43

Hs_GNB2L1_6 (sense AAGGATGGCCAGGCCATGTTA; chemistry not given here)
Score_si2 (CHIKV [7]): 1.62

s16316 (GAATTAGGAAGGACTATTT; chemistry not given here)
Score_si2 (CHIKV [7]): 0.85

Hs_GSTP1_5 (sense CCTCATCTACACCAACTATGA; chemistry not given here)
Score_si3 (CHIKV [7]): 0.45

s2822 (sense TGCTGACTTTTAACCCACA; chemistry not given here)
Score_si4 (CHIKV [7]): 1

Hs_SREBF2_1 (sense ACCCATAATATCATTGAGAAA; chemistry not given here)
Score_si4 (CHIKV [7]): 1.37

s38697 (GCAATTTGCTGTTGCCGAA; chemistry not given here)
Score_si3 (CHIKV [7]): -0.06

s16461 (GGTCAATCCTAGTATCTCT; chemistry not given here)
Score_si3 (CHIKV [7]): 0.88

Hs_GNG13_3 (sense CCCACTCACAACATCTTGTAA; chemistry not given here)
Score_si4 (CHIKV [7]): 0.93

s26228 (sense GAACCTCACTGAGCCTTGA; chemistry not given here)
Score_si2 (CHIKV [7]): 0.75

s6126 (sense GAATGCTCCTTTACCAGAA; chemistry not given here)
Score_si2 (CHIKV [7]): 0.75

Hs_FBXO42_3 (CAGGCTGGGATCAAATCTCCA; chemistry not given here)
Score_si1 (CHIKV [7]): 2.82

s20509 (sense GGACGGCCCAAATCCAAAA; chemistry not given here) [reference compound]
Score_si3 (CHIKV [7]): -0.99

s15797 (GGAATTACGGAGATATAGA; chemistry not given here)
Score_si3 (CHIKV [7]): 1.45

CCOC(=O)C1=C(C)NC(C)=C(C(=O)OC)C1c1cccc(Cl)c1Cl (stereo not drawn) [Felodipine]
IC50 (HEK-293 cells; Homo sapiens, HEK293, 18 h): 12.1 µM | IC50 (CHIKV [1]; Chikungunya virus, HEK293): 3.24 µM

Hs_SEC61B_2 (sense CCCAACATTTCTTGGACCAAA; chemistry not given here)
Score_si3 (CHIKV [7]): 1.09

Hs_KIAA0252_2 (sense AAGGAATTATCTATTAAAGAA; chemistry not given here)
Score_si1 (CHIKV [7]): 2.74

s915 (CATCCAGTCTGTATACGAA; chemistry not given here)
Score_si1 (CHIKV [7]): 1.9

Hs_PEX19_2 (TCCCTTGAGTATTTCAATGTA; chemistry not given here)
Score_si3 (CHIKV [7]): 0.58

s25485 (sense ACTTCCTGTTGGTCTACAA; chemistry not given here)
Score_si3 (CHIKV [7]): 1.19

Hs_ATF1_7 (CCAATAAATTCTAAATTACAA; chemistry not given here) [reference compound]
Score_si2 (CHIKV [7]): -1.38

Hs_CNOT3_1 (sense CTCGGACACTGTGGAATTCTA; chemistry not given here)
Score_si1 (CHIKV [7]): 2.54
